Assay [1] has as its target T1, Human NPY5 receptor (Homo sapiens, UniProt Q15761).
T1 sequence (Q15761 1-445): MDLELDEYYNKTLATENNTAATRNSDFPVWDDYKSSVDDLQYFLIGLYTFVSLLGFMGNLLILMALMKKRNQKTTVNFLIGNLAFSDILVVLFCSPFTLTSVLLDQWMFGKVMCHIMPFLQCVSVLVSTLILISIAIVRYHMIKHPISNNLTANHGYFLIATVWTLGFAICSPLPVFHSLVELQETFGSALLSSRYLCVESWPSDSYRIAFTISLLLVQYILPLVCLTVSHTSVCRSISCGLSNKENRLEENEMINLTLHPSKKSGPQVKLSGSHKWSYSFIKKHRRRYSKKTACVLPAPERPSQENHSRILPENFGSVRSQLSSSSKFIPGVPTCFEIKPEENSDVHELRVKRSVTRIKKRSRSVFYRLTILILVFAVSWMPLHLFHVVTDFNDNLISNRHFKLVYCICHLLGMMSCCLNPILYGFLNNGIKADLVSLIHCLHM
Nature of the assay: Human NPY5 receptor binding assay ([125I]PYY, membrane protein). As to conditions: read-out: hNPY5 IC50. Summed up: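 Membrane protein was incubated with 75-100 pM porcine [125I]PYY and test compound for 2 hours at room temperature with constant mixing in pH 7.4 Tris buffer containing NaCl, KCl, CaCl2, MgSO4, 0.1% BSA and bacitracin. Nonspecific binding was defined with 1 μM PYY. Bound radioactivity was counted after filtration.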

The target of assay [2] is T2, Rat NPY5 receptor (Rattus norvegicus, UniProt Q63634).
T2 sequence (Q63634 1-445): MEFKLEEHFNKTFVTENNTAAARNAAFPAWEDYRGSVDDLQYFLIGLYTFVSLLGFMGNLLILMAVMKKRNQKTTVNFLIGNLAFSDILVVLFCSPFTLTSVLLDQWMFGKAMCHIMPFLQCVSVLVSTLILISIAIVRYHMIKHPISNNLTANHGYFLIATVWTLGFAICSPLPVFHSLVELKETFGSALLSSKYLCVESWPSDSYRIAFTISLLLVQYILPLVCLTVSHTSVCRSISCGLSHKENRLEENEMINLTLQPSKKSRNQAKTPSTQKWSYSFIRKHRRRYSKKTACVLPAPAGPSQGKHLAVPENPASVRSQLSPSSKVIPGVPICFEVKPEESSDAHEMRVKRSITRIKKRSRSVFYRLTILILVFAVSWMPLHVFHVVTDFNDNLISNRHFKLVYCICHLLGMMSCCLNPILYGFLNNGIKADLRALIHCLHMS
Nature of the assay: Rat NPY5 receptor binding assay ([125I]PYY, membrane protein). The procedure:
C. Human and Rat NPY5 Receptor Binding Assays
Binding assays are performed on GF/C Millipore 96well plates pretreated with 0.02% polyethylenimine. The binding buffer is 25 mM Tris, 120 mM NaCl, 5 mM KCl, 1.2 mM KH2PO4, 2.5 mM CaCl2, 1.2 mM MgSO4, 0.1% BSA and 0.5 mg/ml bacitracin, pH 7.4. Samples consist of membrane protein, 75-100 pM [125I]PYY (porcine, NEN-DuPont) and drug dilution. Nonspecific binding is defined by 1 μM PYY. After a 2 hour incubation at room temperature with constant mixing, the samples are aspirated on a vacuum manifold, and rinsed with ice-cold binding buffer. The amount of radioactivity in each well is quantitated with either gamma counting or liquid scintillation.

Where [3] appears, read: [125I]PYY binding, read-out: rNPY5 IC50.
[4] abbreviates: [125I]PYY, read-out: rNPY5 IC50.

Results on 30 compounds are retold here after patent US6410792B1, “Amide derivatives and methods for using the same as selective neuropeptide Y receptor antagonists” (Bayer Corporation, priority 1997, dated 2002).

Structures can show the parent of a compound that is named as a salt. Where two headings read alike, the source gives them in different places. A value given as a limit tells only on which side of the number the result lay.

In general, IC50 refers to the concentration at which inhibition is half-maximal. As to `O=C(CNCC1CC1)Nc1ccc(C(=O)c2ccccc2)cc1` [Compound 184, N-(4-Benzoyl-phenyl)-2-(cyclopropylmethyl-amino)-acetamide], the IC50 in assay [1] ([125I]PYY binding) turned out to be 740 nM; in assay [2] (setting [3]), 690 nM.
Consider `CNC1CCN(CC(=O)Nc2ccc(C3CCCCC3)cc2)C1` (stereo not drawn) [Compound 198, N-(4-Cyclohexyl-phenyl)-2-(3-methylamino-pyrrolidin-1-yl)-acetamide], for which the figures for the IC50 in assay [1] ([125I]PYY binding) and in assay [2] (setting [3]) were 1000 nM and 1300 nM, respectively.
In the same order, the values of `O=C(CNCCCn1ccnc1)Nc1ccc(C2CCCCC2)cc1` [Compound 234, N-(4-Cyclohexyl-phenyl)-2-(3-imidazol-1-yl-propylamino)-acetamide] are 950 nM and 610 nM.
For `O=C(CNCc1ccco1)Nc1ccc(C2CCCCC2)cc1` [Compound 160, N-(4-Cyclohexyl-phenyl)-2-[(furan-2-ylmethyl)-amino]-acetamide] the same measures were 660 nM and 450 nM.
As to `C=CCNCC(=O)Nc1ccc(C2CCCCC2)cc1` [Compound 235, 2-Allylamino-N-(4-cyclohexyl-phenyl)-acetamide], the IC50 in assay [1] ([125I]PYY binding) is 1600 nM; in assay [2] (setting [3]), 3800 nM.
Turning to `O=C(CN1CCC(O)(Cc2ccccc2)CC1)Nc1ccc(-c2ccccc2)cc1` [Compound 315, 2-(4-Benzyl-4-hydroxy-piperidin-1-yl)-N-biphenyl-4-yl-acetamide; hydrochloride], the IC50 in assay [1] ([125I]PYY) is 800 nM; in assay [2] (setting [4]), 2000 nM.
Turning to `CC(C)(C)OC(=O)NC1CCN(CC(=O)Nc2ccc(C(=O)c3ccccc3)cc2)C1` (stereo not drawn) [Compound 205, {1-[(4-Benzoyl-phenylcarbamoyl)-methyl]-pyrrolidin-3-yl}-carbamic acid tert-butyl ester], the IC50 in assay [1] ([125I]PYY binding) worked out at 72 nM; in assay [2] (setting [3]) it was 71 nM.
In the same order, the values of `CC(=CC#N)NCC(=O)Nc1ccc(C2CCCCC2)cc1` [Compound 237, 2-(2-Cyano-1-methyl-vinylamino)-N-(4-cyclohexyl-phenyl)-acetamide] are 4400 nM and 1000 nM.
`O=C(CNC1CCC1)Nc1ccc(C(=O)c2ccccc2)cc1` [Compound 242, N-(4-Benzoyl-phenyl)-2-cyclobutylamino-acetamide]: the IC50 is 4400 nM in assay [1] ([125I]PYY binding) and 5000 nM in assay [2] (setting [3]).
For `COC(CNCC(=O)Nc1ccc(C2CCCCC2)cc1)OC` [Compound 241, N-(4-Cyclohexyl-phenyl)-2-(2,2-dimethoxy-ethylamino)-acetamide] the same measures were 280 nM and 230 nM.
In the same order, the values of `COc1cc(CCNCC(=O)Nc2ccc(C(=O)c3ccccc3)cc2)ccc1O` [Compound 202, N-(4-Benzoyl-phenyl)-2-[2-(4-hydroxy-3-methoxy-phenyl)-ethylamino]-acetamide] are 58 nM and 53 nM.
In the same order, the values of `CCNC1CCN(CC(=O)Nc2ccc(C3CCCCC3)cc2)C1` (stereo not drawn) [Compound 199, N-(4-Cyclohexyl-phenyl)-2-(3-ethylamino-pyrrolidin-1-yl)-acetamide] are 820 nM and 2400 nM.
In the case of `COC(=O)C=C(C)NCC(=O)Nc1ccc(C2CCCCC2)cc1` [Compound 238, 3-{[(4-Cyclohexyl-phenylcarbamoyl)-methyl]-amino}-but-2-enoic acid methyl ester], the IC50 in assay [1] ([125I]PYY binding) amounted to 650 nM; in assay [2] (setting [3]) it was 550 nM.
For `O=C(CNC(CO)CO)Nc1ccc(C2CCCCC2)cc1` [Compound 173, N-(4-Cyclohexyl-phenyl)-2-(2-hydroxy-1-hydroxymethyl-ethylamino)-acetamide] the same measures were 2000 nM and 920 nM.
On to `O=C(CNCc1ccc(C(=O)O)cc1)Nc1ccc(C2CCCCC2)cc1` [Compound 212], for which the IC50 in assay [1] ([125I]PYY binding) and in assay [2] (setting [3]) was greater than 10000 nM each time.
With `C#CC(C)(C)NCC(=O)Nc1ccc(C(=O)c2ccccc2)cc1` [Compound 223, N-(4-Benzoyl-phenyl)-2-(1,1-dimethyl-prop-2-ynylamino)-acetamide], the values for the IC50 in assay [1] ([125I]PYY binding) and in assay [2] (setting [3]) were 540 nM and 1400 nM, respectively.
In the same order, the values of `O=C(CNCCO)Nc1ccc(C2CCCCC2)cc1` [Compound 176, N-(4-Cyclohexyl-phenyl)-2-(2-hydroxy-ethylamino)-acetamide] are greater than 10000 nM and greater than 10000 nM.
In the same order, the values of `C=CCC(NCC(=O)Nc1ccc(C2CCCCC2)cc1)C(=O)O` (stereo not drawn) [Compound 220, 2-{[(4-Cyclohexyl-phenylcarbamoyl)-methyl]-amino}-pent-4-enoic acid] are 540 nM and 720 nM.
Take `CCN(CC)CCCC(C)NCC(=O)Nc1ccc(C(=O)c2ccccc2)cc1` (stereo not drawn) [Compound 246, N-(4-Benzoyl-phenyl)-2-(4-diethylamino-1-methyl-butylamino)-acetamide]: the figures for the IC50 in assay [1] ([125I]PYY) and in assay [2] (setting [4]) were 1600 nM and 1700 nM, respectively.
Turning to `O=C(O)CC(NCC(=O)Nc1ccc(C(=O)c2ccccc2)cc1)C(F)(F)F` (stereo not drawn) [Compound 190, 3-{[(4-Benzoyl-phenylcarbamoyl)-methyl]-amino}-4,4,4-trifluoro-butyric acid], the IC50 in assay [1] ([125I]PYY binding) and in assay [2] (setting [3]) was 340 nM each time.
In the case of `C=CCC(NCC(=O)Nc1ccc(C(=O)c2ccccc2)cc1)C(=O)O` (stereo not drawn) [Compound 230, 2-{[(4-Benzoyl-phenylcarbamoyl)-methyl]-amino}-pent-4-enoic acid], the IC50 in assay [1] ([125I]PYY binding) came out at 810 nM; in assay [2] (setting [3]) it was 2500 nM.
Turning to `CCC(=O)C1(c2ccccc2)CCN(CC(=O)Nc2ccc(-c3ccccc3)cc2)CC1` [Compound 317, N-Biphenyl-4-yl-2-(4-phenyl-4-propionyl-piperidin-1-yl)-acetamide: hydrochloride], the IC50 in assay [1] ([125I]PYY) came to 10 nM; in assay [2] (rNPY5 IC50, [125I]PYY), 11 nM.
`CN(C(=O)OC(C)(C)C)C1CCN(CC(=O)Nc2ccc(C3CCCCC3)cc2)C1` (stereo not drawn) [Compound 215, {1-[(4-Cyclohexyl-phenylcarbamoyl)-methyl]-pyrrolidin-3-yl)-methyl-carbamic acid tert-butyl ester]: the IC50 in assay [1] ([125I]PYY binding) worked out at 170 nM; in assay [2] (setting [3]), 300 nM.
For `CC(=O)OC1CC2CC1N(CC(=O)Nc1ccc(C3CCCCC3)cc1)C2` (stereo not drawn) [Compound 221, Acetic acid 2-[(4-cyclohexyl-phenylcarbamoyl)-methyl]-2-aza-bicyclo[2.2.1]hept-6-yl ester] the same measures were 29 nM and 29 nM.
Consider `C#CC(C)(C)NCC(=O)Nc1ccc(C2CCCCC2)cc1` [Compound 213, N-(4-Cyclohexyl-phenyl)-2-(1,1-dimethyl-prop-2-ynylamino)-acetamide], for which the IC50 in assay [1] ([125I]PYY binding) and in assay [2] (setting [3]) was 360 nM throughout.
Turning to `O=C(CNCc1ccc(C(=O)O)cc1)Nc1ccc(C(=O)c2ccccc2)cc1` [Compound 222, 4-({[(4-Benzoyl-phenylcarbamoyl)-methyl]-amino}-methyl)-benzoic acid], the IC50 in assay [1] ([125I]PYY binding) and in assay [2] (setting [3]) was greater than 10000 nM each time.
As to `O=C1C=C(NCC(=O)Nc2ccc(C3CCCCC3)cc2)CCC1` [Compound 179, N-(4-Cyclohexyl-phenyl)-2-(3-oxo-cyclohex-1-enylamino)-acetamide], the IC50 in assay [1] ([125I]PYY binding) and in assay [2] (setting [3]) was greater than 10000 nM throughout.
As for `O=C(CNc1c(I)cc(C(=O)O)cc1I)Nc1ccc(C2CCCCC2)cc1` [Compound 165, 4-{[(4-Cyclohexyl-phenylcarbamoyl)-methyl]-amino)-3,5-diiodo-benzoic acid anion], the IC50 amounted to 1100 nM in assay [1] ([125I]PYY binding) and 700 nM in assay [2] (setting [3]).
In the same order, the values of `COC(CNCC(=O)Nc1ccc(C(=O)c2ccccc2)cc1)OC` [Compound 5, N-(4-Benzoyl-phenyl)-2-(2,2-dimethoxy-ethylamino)-acetamide] are 300 nM and 300 nM.
In the same order, the values of `N#CCNCC(=O)Nc1ccc(C(=O)c2ccccc2)cc1` [Compound 211, N-(4-Benzoyl-phenyl)-2-(cyanomethyl-amino)-acetamide] are 1300 nM and 1000 nM.
